This is an account of results in patent US7638535B2, “4-(aminomethyl)-piperidine benzamides as 5HT4-antagonists” (Janssen Pharmaceutica N.V., priority 2003, dated 2009).

Broadly, the melting point is the temperature, or range, at which the solid turns liquid.

In one data set the target is T1, h5-HT4b (Homo sapiens, UniProt Q13639).
T1 construct: expressed in transfected cells; host or cells: HEK 293 (clone 9), membrane preparation
In words: 5HT4 antagonism: [3H]GR113808 binding to membranes of h5-HT4b-HEK 293 clone 9 cells. The conditions noted are these: displacement of [3H]GR113808 0.1 nM, h5-HT4b-HEK 293 membranes, 30 min at 25° C.; read-out: pIC50 (5HT4 antagonistic data) (converted). The method in brief:
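Membranes from h5-HT4b-HEK 293 clone 9 cells were incubated with [3H]GR113808 (0.1 nM as added) in 50 mM HEPES-NaOH pH 7.4 for 30 min at 25 °C. Non-specific binding was defined with a 5-HT4 agonist. Bound radioligand was separated by filtration over PEI-soaked GF/B filters.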
A general note: Displacement assays read how much labelled ligand stays bound in the presence of the test substance.

Data set [1] can be described thus: Metabolic stability: % metabolism after 60 minutes incubation with active liver microsomes. The format is in vitro ADME. The conditions noted are these: compound 5 μM, microsomes 1 mg/ml, NADPH-generating system, 60 minutes at 37 degrees Celsius. How it is done: Sub-cellular tissue preparations were made according to Gorrod et al. (Xenobiotica 5:453-462, 1975) by centrifugal separation after mechanical homogenization of tissue. Liver tissue was rinsed in ice-cold 0.1 M Tris-HCl (pH 7.4) buffer to wash excess blood. Tissue was then blotted dry, weighed and chopped coarsely using surgical scissors. The tissue pieces were homogenized in 3 volumes of ice-cold 0.1 M phosphate buffer (pH 7.4).
Tissue homogenates were centrifuged at 9000×g for 20 minutes at 4° C. The resulting supernatant was stored at −80° C. and is designated ‘S9’.
The S9 fraction can be further centrifuged at 100.000×g for 60 minutes (4° C.). The resulting supernatant was carefully aspirated, aliquoted and designated ‘cytosol’. The pellet was re-suspended in 0.1 M phosphate buffer (pH 7.4) in a final volume of 1 ml per 0.5 g original tissue weight and designated ‘microsomes’.
All sub-cellular fractions were aliquoted, immediately frozen in liquid nitrogen and stored at −80° C. until use.
For the samples to be tested, the incubation mixture contained PBS (0.1M), compound (5 μM), microsomes (1 mg/ml) and a NADPH-generating system (0.8 mM glucose-6-phosphate, 0.8 mM magnesium chloride and 0.8 Units of glucose-6-phosphate dehydrogenase). Control samples contained the same material but the microsomes were replaced by heat inactivated (10 minutes at 95 degrees Celsius) microsomes. Recovery of the compounds in the control samples was always 100%.
The mixtures were preincubated for 5 minutes at 37 degrees Celsius. The reaction was started at time point zero (t=0) by addition of 0.8 mM NADP and the samples were incubated for 60 minutes (t=60). The reaction was terminated by the addition of 2 volumes of DMSO. Then the samples were centrifuged for 10 minutes at 900×g and the supernatants were stored at room temperature for no longer as 24 hours before analysis. All incubations were performed in duplo. Analysis of the supernatants was performed with LC-MS analysis. Elution of the samples was performed on a Xterra MS C18 (50×4.6 mm, 5 μm, Waters, US). An Alliance 2790 (Supplier: Waters, US) HPLC system was used. Elution was with buffer A (25 mM ammoniumacetate (pH 5.2) in H2O/acetonitrile (95/5)), solvent B being acetonitrile and solvent C methanol at a flow rate of 2.4 ml/min. The gradient employed was increasing the organic phase concentration from 0% over 50% B and 50% C in 5 min up to 100% B in 1 minute in a linear fashion and organic phase concentration was kept stationary for an additional 1.5 minutes. Total injection volume of the samples was 25 μl.
A Quatro triple quadrupole mass spectrometer fitted with and ESP source was used as detector. The source and the desolvation temperature were set at 120 and 350° C. respectively and nitrogen was used as nebuliser and drying gas. Data were acquired in positive scan mode (single ion reaction). Cone voltage was set at 10 V and the dwell time was 1 second.
Metabolic stability was expressed as % metabolism of the compound after 60 minutes (equation given as example) of incubation in the presence of active microsomes (E(act))
For orientation: Liver microsomes are a subcellular fraction often used to study metabolism.

Structures are written as SMILES.

T1 sequence (Q13639 whole entry): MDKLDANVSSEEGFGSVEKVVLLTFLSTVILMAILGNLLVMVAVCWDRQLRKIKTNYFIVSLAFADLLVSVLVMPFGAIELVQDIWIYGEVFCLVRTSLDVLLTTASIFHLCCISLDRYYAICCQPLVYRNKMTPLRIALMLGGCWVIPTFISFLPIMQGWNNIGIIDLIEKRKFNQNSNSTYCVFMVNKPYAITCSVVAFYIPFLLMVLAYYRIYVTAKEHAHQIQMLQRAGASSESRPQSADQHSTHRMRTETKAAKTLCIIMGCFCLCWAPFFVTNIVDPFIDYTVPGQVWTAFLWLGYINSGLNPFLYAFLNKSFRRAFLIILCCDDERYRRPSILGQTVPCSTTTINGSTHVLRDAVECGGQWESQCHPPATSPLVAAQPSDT

As to `CNCCCN1CC[C@@H](CNC(=O)c2cc(NC)cc3c2OCCCO3)[C@H](O)C1` (hydrate or solvate) [compound 81], the melting point was greater than 130 °C. `COCCCCN1CC[C@@H](CNC(=O)c2cc(N)cc3c2OCCCO3)[C@H](O)C1` [compound 1] registered a melting point of 174 °C. Besides, the IC50 at h5-HT4b is 49 nM. `CNc1cc2c(c(C(=O)NC[C@@H]3CCN(CCCO)C[C@H]3O)c1)OCCCO2` [compound 2]: the melting point stood at 150 °C. The IC50 at h5-HT4b was 525 nM. The corresponding values for `CCCCN1CC[C@@H](CNC(=O)c2cc(N)c(Cl)c3c2OCCO3)[C@H](O)C1` [compound 11] are greater than 110 °C and 5.75 nM.

Compound `CNc1cc2c(c(C(=O)NC[C@@H]3CCN(CCCC(=O)O)C[C@H]3O)c1)OCCO2` [compound 16] yielded a melting point of 240 °C. In addition, the IC50 at h5-HT4b is 617 nM. `CNc1cc(C(=O)NC[C@@H]2CCN(CCCOC)C[C@H]2O)c2c(c1Cl)OCCO2` [compound 26] had a melting point of 106 to 108 °C. The IC50 at h5-HT4b was 19.1 nM. For `CNc1cc2c(c(C(=O)NC[C@@H]3CCN(CCOC)C[C@H]3O)c1)OCCCO2` [compound 33] the same measures were 135 °C and 186 nM. For `CC(=O)CCCN1CC[C@@H](CNC(=O)c2cc(N)c(Cl)c3c2OCCO3)[C@H](O)C1` [compound 44] the same measures were 130 °C and 22.9 nM. In turn, `CS(=O)(=O)NCCN1CC[C@@H](CNC(=O)c2cc(N)c(Cl)c3c2OCCO3)[C@H](O)C1` [compound 63] came in with a melting point of 180 °C. For the same compound, at h5-HT4b, the IC50 was 69.2 nM. `Cc1nccnc1NCCN1CC[C@@H](CNC(=O)c2cc(N)c(Cl)c3c2OCCO3)[C@H](O)C1` [compound 68] gave a melting point of 100 °C. At h5-HT4b, the IC50 is 30.2 nM.

`CCCCN1CC[C@@H](CNC(=O)c2cc(N)cc3c2OCCO3)[C@H](O)C1` [compound 107] registered a melting point greater than 160 °C. Besides, at h5-HT4b, the IC50 is 5.5 nM. For `CNc1cc2c(c(C(=O)NC[C@@H]3CCN(CCCOC)C[C@H]3O)c1)OCCCO2` [compound 113] the same measures were 126 °C and 126 nM. Consider `COCCCN1CC[C@@H](CNC(=O)c2cc(C#N)cc3c2OCCCO3)[C@H](O)C1` [compound 158], for which the “% metabolised compound (compounds of present invention)” value (shortened to “% metabolised compound”) in data set [1] came out at 5%. In addition, the IC50 at h5-HT4b is 10.2 nM. The corresponding values for `CCCCN1CC[C@@H](CNC(=O)c2cc(C#N)cc3c2OCCCO3)[C@H](O)C1` [compound 159] are 22% and 5.01 nM. For `Cc1cc2c(c(C(=O)NC[C@@H]3CCN(CCC4OCCO4)C[C@H]3O)c1)OCCCO2` [compound 163] the same measures were 11% and 2.29 nM. For `N#Cc1cc2c(c(C(=O)NC[C@@H]3CCN(CCCO)C[C@H]3O)c1)OCCCO2` [compound 165] the same measures were 1% and 15.8 nM. `Cc1cc2c(c(C(=O)NC[C@@H]3CCN(CCCO)C[C@H]3O)c1)OCCCO2` [compound 168]: the “% metabolised compound” value in data set [1] stood at 4%. The IC50 on h5-HT4b is 2 nM. The corresponding values for `CCNc1cc2c(c(C(=O)NC[C@@H]3CCN(CCCOC)C[C@H]3O)c1)OCCCO2` [compound 177] are 4% and 108 nM.

With `CCCCN1CC[C@@H](CNC(=O)c2cc(CC#N)cc3c2OCCCO3)[C@H](O)C1` [compound 183], the “% metabolised compound” value in data set [1] was 10%. In addition, the IC50 at h5-HT4b is 3.47 nM. The corresponding values for `COCCCCN1CC[C@@H](CNC(=O)c2cc(CC#N)cc3c2OCCCO3)[C@H](O)C1` [compound 184] are 12% and 20 nM. The corresponding values for `COc1cc2c(c(C(=O)NC[C@@H]3CCN(CCCO)C[C@H]3O)c1)OCCCO2` [compound 185] are 3% and 19.5 nM.

Take `Cc1cc2c(c(C(=O)NC[C@@H]3CCN(CC4CCCO4)C[C@H]3O)c1)OCCCO2` (stereo partly drawn) [compound 186]: the “% metabolised compound” value in data set [1] is recorded as 0%. In addition, on h5-HT4b, the IC50 was 5.01 nM.

With `COc1cc2c(c(C(=O)NC[C@@H]3CCN(CCC4OCCO4)C[C@H]3O)c1)OCCCO2` [compound 187], the “% metabolised compound” value in data set [1] turned out to be 18%. Further, at h5-HT4b, the IC50 is 11.5 nM. Take `Cc1cc2c(c(C(=O)NC[C@@H]3CCN(CCCCNS(C)(=O)=O)C[C@H]3O)c1)OCCCO2` [compound 193]: the melting point came out at 134 °C. At h5-HT4b, the IC50 is 1.69 nM. In the case of `Cc1cc2c(c(C(=O)NC[C@@H]3CCN(CCCC(N)=O)C[C@H]3O)c1)OCCCO2` [compound 197], the melting point is 136 °C. For `COCCCN1CC[C@@H](CNC(=O)c2cc(C)cc3c2OCCCO3)[C@H](O)C1` [compound 200], the melting point is 108 °C. Also, in data set [1], the “% metabolised compound” value worked out at 15%. Besides, the IC50 on h5-HT4b was 0.955 nM. Regarding `COCCCN1CC[C@@H](CNC(=O)c2cc(C#N)cc3c2OCCCO3)[C@H](O)C1` [compound 202], the “% metabolised compound” value in data set [1] was determined as 8%. The IC50 at h5-HT4b is 4.37 nM.

Turning to `Cc1cc2c(c(C(=O)NC[C@@H]3CCN(CCOCCO)C[C@H]3O)c1)OCCCO2` [compound 211], the “% metabolised compound” value in data set [1] came out at 13%. Besides, the IC50 at h5-HT4b was 2.95 nM. The corresponding values for `Cc1cc2c(c(C(=O)NC[C@@H]3CCN(CCCCO)C[C@H]3O)c1)OCCCO2` [compound 225] are 14% and 0.759 nM.

For the compound `Cc1cc2c(c(C(=O)NC[C@@H]3CCN(CCCC4(C)OCCO4)C[C@H]3O)c1)OCCCO2` [compound 227], in data set [1], the “% metabolised compound” value is reported as 24%. For the same compound, the IC50 at h5-HT4b is 0.501 nM. Turning to `Cc1cc2c(c(C(=O)NC[C@@H]3CCN(CCCCO)C[C@H]3O)c1)OCCO2` [compound 228], the “% metabolised compound” value in data set [1] was 6%. For the same compound, at h5-HT4b, the IC50 is 0.398 nM. On to `CC(=O)CCCN1CC[C@@H](CNC(=O)c2cc(C)cc3c2OCCCO3)[C@H](O)C1` [compound 229], for which the “% metabolised compound” value in data set [1] amounted to 12%. For the same compound, the IC50 on h5-HT4b is 0.55 nM. `Cc1cc2c(c(C(=O)NC[C@@H]3CCN(CCCC(=O)N4CCN(C)CC4)C[C@H]3O)c1)OCCCO2` [compound 238] showed a melting point greater than 112 °C. Moreover, the IC50 on h5-HT4b is 0.851 nM. On to `N#CCCCN1CC[C@@H](CNC(=O)c2cc(C#N)cc3c2OCCO3)[C@H](O)C1` [compound 246], for which, in data set [1], the “% metabolised compound” value came to 7%. In addition, the IC50 on h5-HT4b is 12.6 nM. Consider `COCCCN1CC[C@@H](CNC(=O)c2cc(C#N)cc3c2OCCO3)[C@H](O)C1` [compound 247], for which the “% metabolised compound” value in data set [1] came to 12%. In addition, the IC50 on h5-HT4b is 3.98 nM.
